Reference: the Deep4Chem optical property database
Each block holds one molecule with its values, some of them ahead of it.

Experiment: photoluminescence quantum yield (fraction); solvent given as SMILES

Compound: CCCCN1C(=O)C(=C/C=C/C=C/C=C2N(CCCC)c3ccccc3N2CCCC)C(=O)N(CCCC)C1=S
photoluminescence quantum yield (in CC#N): 0.099
photoluminescence quantum yield (in CCCCCC): 0.178
photoluminescence quantum yield (in CCO): 0.074
photoluminescence quantum yield (in CN(C)C=O): 0.127
photoluminescence quantum yield (in CO): 0.056
photoluminescence quantum yield (in Cc1ccccc1): 0.73
photoluminescence quantum yield (in ClC(Cl)Cl): 0.365
photoluminescence quantum yield (in ClCCl): 0.266
photoluminescence quantum yield (in OCC(F)(F)F): 0.023

Compound: c1ccc(N(c2ccccc2)c2ccc(-c3ncc(-c4cnc(-c5ccc(N(c6ccccc6)c6ccccc6)cc5)s4)s3)cc2)cc1
photoluminescence quantum yield (in CO): 0.2

Compound: CCCCCCCCN1c2ccc(C#Cc3cc(C(F)(F)F)cc(C(F)(F)F)c3)cc2Sc2cc(C=O)ccc21
photoluminescence quantum yield (in C1CCOC1): 0.53
photoluminescence quantum yield (in CC#N): 0.53
photoluminescence quantum yield (in CCCCCC): 0.6
photoluminescence quantum yield (in CO): 0.11
photoluminescence quantum yield (in CS(C)=O): 0.77
photoluminescence quantum yield (in Cc1ccccc1): 0.67
photoluminescence quantum yield (in ClC(Cl)Cl): 0.63

Compound: CCc1ccc(-n2c3ccccc3c3cc4c(cc32)c2ccccc2n4-c2ccc(CC)s2)s1
photoluminescence quantum yield (in ClC(Cl)Cl): 0.023

Compound: CCCCN(CCCC)c1ccc(/C=C/c2ccc3nc(-c4ccccc4)c(/C=C/c4ccc(N(C)C)cc4)nc3c2)cc1
photoluminescence quantum yield (in C1COCCO1): 0.17

Compound: c1ccc(-c2cc(-c3ccc(-c4nc(-c5ccccn5)c(-c5ccccn5)[nH]4)cc3)cc(-c3ccccn3)n2)nc1
photoluminescence quantum yield (in C1CCOC1): 0.06
photoluminescence quantum yield (in CC#N): 0.08
photoluminescence quantum yield (in CC(C)=O): 0.201
photoluminescence quantum yield (in CCCCCC): 0.006
photoluminescence quantum yield (in CCO): 0.202
photoluminescence quantum yield (in CCOC(C)=O): 0.153
photoluminescence quantum yield (in CN(C)C=O): 0.135
photoluminescence quantum yield (in CO): 0.078
photoluminescence quantum yield (in CS(C)=O): 0.111
photoluminescence quantum yield (in ClC(Cl)Cl): 0.13
photoluminescence quantum yield (in ClCCl): 0.145
photoluminescence quantum yield (in O): 0.045

Compound: COc1ccc(-c2nc(-c3ccc(C#N)cc3)[nH]c2-c2ccc(OC)cc2)cc1
photoluminescence quantum yield (in CO): 0.6

Compound: c1ccc(-c2ccc(-c3nc(-c4ccccc4)c(N(c4ccccc4)c4ccccc4)[se]3)cc2)cc1
photoluminescence quantum yield (in ClC(Cl)Cl): 0.159

Compound: COc1ccc(-n2nc(C(=O)c3ccc(Cl)cc3)c(N3CCCC3)n2)cc1
photoluminescence quantum yield (in CC#N): 0.004

Compound: CCCCCCOC(=O)/C=C/C1=CC2=C(c3c(C)cc(C)cc3C)c3cc(/C=C/C(=O)OCCCCCC)cn3[B-](F)(F)[N+]2=C1
photoluminescence quantum yield (in ClCCl): 0.68

Compound: COc1ccccc1-c1c2ccc(=[N+]3CCCCC3)cc-2oc2cc(N3CCCCC3)ccc12
photoluminescence quantum yield (in CCO): 0.36
photoluminescence quantum yield (in ClCCl): 0.92

Compound: CN(C)c1cccc(/C=C/c2ncc(-c3ccc(OCc4ccccc4)c(OCc4ccccc4)c3)o2)c1
photoluminescence quantum yield (in ClCCl): 0.37

Compound: CC(C)(C)c1ccc2oc3nc4oc5ccc(-n6c7ccccc7c7cc(-n8c9ccccc9c9ccccc98)ccc76)cc5c4cc3c2c1
photoluminescence quantum yield (in ClC(Cl)Cl): 0.15

Compound: CCOC(=O)C1=C(C(=O)OCC)C2(c3ccccc3-c3ccccc32)[C@@H](c2ccc([N+](=O)[O-])cc2)C=C2c3cc(OC)c(OC)cc3CCN21
photoluminescence quantum yield (in ClCCl): 0.00075

Compound: COC(=O)c1cccc2c1C#Cc1c(N)cccc1OCCCO2
photoluminescence quantum yield (in CC#N): 0.03
photoluminescence quantum yield (in ClCCl): 0.14

Compound: N#Cc1ccc(-n2c(-c3ccc(-c4ccc(-c5nc6c7ccccc7c7ccccc7c6n5-c5ccc(C#N)c6ccccc56)c5ccccc45)c4ccccc34)nc3c4ccccc4c4ccccc4c32)c2ccccc12
photoluminescence quantum yield (in ClCCl): 0.9

Compound: Cc1ccc(C2=C3C=C(I)C(I)=[N+]3[B-](F)(F)n3c2cc(I)c3I)cc1
photoluminescence quantum yield (in C1CCCCC1): 0.099
photoluminescence quantum yield (in CC#N): 0.058
photoluminescence quantum yield (in CCO): 0.067
photoluminescence quantum yield (in CCOC(C)=O): 0.073
photoluminescence quantum yield (in CO): 0.061
photoluminescence quantum yield (in OCC(F)(F)F): 0.059

Compound: CNc1ccc2nc3cc(Cl)c(Cl)cc3nc2c1
photoluminescence quantum yield (in CCO): 0.06

Compound: CCCCCCCCCCCCN1C(=O)c2ccc3c4ccc5c6c(ccc(c7ccc(c2c37)C1=O)c64)C(=O)N(CCCCCCCCCCCC)C5=O
photoluminescence quantum yield (in CN(C)C=O): 1

Compound: NS(=O)(=O)c1ccc(N2N=C(c3ccc(O)cc3)CC2c2ccc(Cl)cc2)cc1 (configuration not stated)
photoluminescence quantum yield (in C1CCOC1): 0.68
photoluminescence quantum yield (in C1COCCO1): 0.72
photoluminescence quantum yield (in CC#N): 0.65
photoluminescence quantum yield (in CC(C)O): 0.53
photoluminescence quantum yield (in CCO): 0.44
photoluminescence quantum yield (in CCOC(C)=O): 0.72
photoluminescence quantum yield (in CN(C)C=O): 0.71
photoluminescence quantum yield (in CO): 0.36
photoluminescence quantum yield (in CS(C)=O): 0.75
photoluminescence quantum yield (in O): 0.56

Compound: [NH3+]C(Cc1ccc(O)cc1)C(=O)[O-] (configuration not stated)
photoluminescence quantum yield (in O): 0.13

Compound: C(=C\c1ccncn1)/c1ccc(N(c2ccccc2)c2ccc(/C=C/c3ccncn3)cc2)cc1
photoluminescence quantum yield (in ClCCl): 0.73

Compound: C[Si](C)(C)C#C[Si](c1c2ccccc2cc2ccccc12)(c1c2ccccc2cc2ccccc12)c1c2ccccc2cc2ccccc12
photoluminescence quantum yield (in ClC(Cl)Cl): 0.04

Compound: CC1(C)c2cc(/C=C/c3nc(/C=C/c4ccc5c(c4)C(C)(C)c4cc(N(c6ccccc6)c6ccc7ccccc7c6)ccc4-5)nc(/C=C/c4ccc5c(c4)C(C)(C)c4cc(N(c6ccccc6)c6ccc7ccccc7c6)ccc4-5)n3)ccc2-c2ccc(N(c3ccccc3)c3ccc4ccccc4c3)cc21
photoluminescence quantum yield (in Cc1ccccc1): 0.25

Compound: CC(C)(C)NC1=CC2=c3cc(NC(C)(C)C)c4nc(C(F)(F)C(F)(F)C(F)(F)F)nc5c(NC(C)(C)C)cc(c3c54)C3=CC(NC(C)(C)C)=C4N=C(C(F)(F)C(F)(F)C(F)(F)F)N=C1C4C32 (configuration not stated)
photoluminescence quantum yield (in C1CCOC1): 0.25

Compound: N#Cc1ccc(-c2cn3ccc[n+]3[n-]2)cc1
photoluminescence quantum yield (in ClCCl): 0.18

Compound: F[B-]1(F)N2C=CN=CC2=[N+]2[N+]1=Cc1c(-c3ccccc3)cc(-c3ccccc3)n1[B-]2(F)F
photoluminescence quantum yield (in ClCCl): 0.49

Compound: Cc1nnc(-c2cc(-c3nnc(C)o3)c(-n3c4ccccc4c4ccccc43)cc2-n2c3ccccc3c3ccccc32)o1
photoluminescence quantum yield (in Cc1ccccc1): 0.068
photoluminescence quantum yield (in O=P(c1ccccc1)(c1ccccc1)c1ccccc1Oc1ccccc1P(=O)(c1ccccc1)c1ccccc1): 0.59

Compound: CC(C)(C(=O)c1ccc(N2c3ccccc3Oc3ccccc32)cc1)C(=O)c1ccc(N2c3ccccc3Oc3ccccc32)cc1
photoluminescence quantum yield (in c1ccc2c(c1)c1ccccc1n2-c1ccc(-c2ccc(-n3c4ccccc4c4ccccc43)cc2)cc1): 0.54

Compound: CCOC(=O)CN1C(=O)C2=C(c3ccc(N4CCCCC4)cc3)N(CC(=O)OCC)C(=O)C2=C1c1ccc(C#N)cc1
photoluminescence quantum yield (in CC#N): 0.01
photoluminescence quantum yield (in CS(C)=O): 0.001
photoluminescence quantum yield (in Cc1ccccc1): 0.16

Compound: O=c1c2cc(F)c(O)cc2oc2cc(O)c(F)cc12
photoluminescence quantum yield (in CCO): 0.26

Compound: C(#Cc1nc(C#Cc2cccs2)c(C#Cc2cccs2)c(C#Cc2cccs2)c1C#Cc1cccs1)c1cccs1
photoluminescence quantum yield (in ClCCl): 0.48

Compound: COc1cc2c3cc(OC)c(OC)cc3c3cc4c(C)cc(=O)oc4cc3c2cc1OC
photoluminescence quantum yield (in CO): 0.02
photoluminescence quantum yield (in CS(C)=O): 0.056
photoluminescence quantum yield (in ClC(Cl)Cl): 0.08

Compound: COc1cc(OC)cc(C2=[O+][B-](F)(F)OC(c3ccc4ccccc4c3)=C2)c1
photoluminescence quantum yield (in CC#N): 0.01
photoluminescence quantum yield (in CC(C)=O): 0.01
photoluminescence quantum yield (in CCCCCC): 0.19
photoluminescence quantum yield (in Cc1ccccc1): 0.1
photoluminescence quantum yield (in ClCCl): 0.05

Compound: COc1ccc(Oc2ccc3c4c(cccc24)C(=O)N(c2c(C(C)C)cccc2C(C)C)C3=O)cc1
photoluminescence quantum yield (in ClCCl): 0.002

Compound: O=C1c2ccccc2S(=O)(=O)c2ccc(-n3c4ccccc4c4ccccc43)cc21
photoluminescence quantum yield (in c1cc(-c2cccc(-n3c4ccccc4c4ccccc43)c2)cc(-n2c3ccccc3c3ccccc32)c1): 0.296

Compound: CCCCCCOc1cc(N(CC)CC)ccc1/C=C(\C#N)c1ccc(/C=C/C(=C(C#N)C#N)c2ccc(N(c3ccccc3)c3ccccc3)cc2)s1
photoluminescence quantum yield (in ClCCl): 0.027

Compound: COc1ccc(-c2c3ccc(=[N+]4CCCCC4)cc-3oc3cc(N4CCCCC4)ccc23)cc1
photoluminescence quantum yield (in CCO): 0.31
photoluminescence quantum yield (in ClCCl): 0.91

Compound: O=c1c2ccccc2c2c3c(cccc13)c(-c1ccccc1)c1c3cccc4cccc(c43)c12
photoluminescence quantum yield (in CC#N): 0.91
photoluminescence quantum yield (in CO): 0.97

Compound: F[B-]1(F)n2c(c(-c3ccccc3)c3ccccc32)C(c2ccccc2)=C2C(c3ccccc3)=c3ccccc3=[N+]21
photoluminescence quantum yield (in ClCCl): 0

Second part, the molecule after the results:

photoluminescence quantum yield (in ClCCl): 0.52
Compound: COc1ccc2cc(/C=C/c3nc(/C=C/c4ccc(N(C)C)cc4)cc(/C=C/c4ccc(N(C)C)cc4)n3)ccc2c1

photoluminescence quantum yield (in ClCCl): 0.64
Compound: COc1ccc(C#Cc2c3cc4ccccc4cc3c(C#Cc3ccc(OC)cc3)c3cc4sc(C)cc4cc23)cc1

photoluminescence quantum yield (in ClCCl): 0.12
Compound: c1ccc2c(c1)ccc1c3ccccc3ccc21

photoluminescence quantum yield (in ClCCl): 0.109
Compound: COc1ccc2c(c1)cc(C)c1c3ccccc3[nH]c21

photoluminescence quantum yield (in C1CCOC1): 0.066
Compound: COc1ccc(C(=Cc2ccc(C=O)cc2)c2ccc(OC)cc2)cc1

photoluminescence quantum yield (in ClCCl): 0.02
Compound: O=C1c2ccccc2C2=Nc3cccc4cccc(c34)N12

photoluminescence quantum yield (in CCCCCC): 0.24
Compound: CC(C)(C)c1cc2ccc3cc(C(C)(C)C)cc4c(N(c5ccccc5)c5ccccc5)cc(c1)c2c34

photoluminescence quantum yield (in CC#N): 0.029
photoluminescence quantum yield (in CO): 0.021
Compound: CC(C)CCCN1c2ccccc2CCc2ccccc21

photoluminescence quantum yield (in C1CCCCC1): 0.86
Compound: Nc1ccc2cc3ccccc3cc2c1

photoluminescence quantum yield (in ClCCl): 0.9
Compound: C[Si]1(C)c2cc(-c3ccccc3)ccc2C=Cc2ccc(-c3ccccc3)cc21

photoluminescence quantum yield (in C1CCCCC1): 0.64
Compound: COc1ccc(-c2ccc(-c3ccc(OC)cc3)cc2)cc1

photoluminescence quantum yield (in CC1CCCCC1): 0.41
photoluminescence quantum yield (in CC#N): 0.04
Compound: C(=C\c1c2ccccc2cc2ccccc12)/c1ccc2ccccc2n1

photoluminescence quantum yield (in ClCCl): 0.01
Compound: Brc1ccc(/C=C/c2ccncn2)cc1

photoluminescence quantum yield (in CC#N): 0.02
Compound: c1ccc(-[c+]2c3ccccc3sc3ccccc32)cc1

photoluminescence quantum yield (in CC#N): 0.169
photoluminescence quantum yield (in O): 0.0367
Compound: Nc1nc2ccccc2[n+]([O-])n1

photoluminescence quantum yield (in ClCCl): 0.35
Compound: CCN(CC)c1ccc2cc(-c3nc4cc(C(=O)Nc5ccccc5)ccc4o3)c(=O)oc2c1

photoluminescence quantum yield (in ClCCl): 0.43
Compound: COc1ccc2cc(-c3cc(-c4ccccc4)c4n3[B-](F)(F)[N+]3=C5C=NC=CN5[B-](F)(F)[N+]3=C4)ccc2c1

photoluminescence quantum yield (in ClCCl): 0.3
Compound: C[Si]1(C)O[Si](C)(C)c2cc3c(-c4ccccc4)c4cc([N+](=O)[O-])ccc4nc3cc21

photoluminescence quantum yield (in CC#N): 0.61
photoluminescence quantum yield (in ClCCl): 0.99
Compound: COc1ccc(-c2cc3c(s2)c(C(C)=O)cc(=O)n3Cc2ccccc2)cc1

photoluminescence quantum yield (in c1ccccc1): 0.668
Compound: COc1ccc2ccc3oc(=O)c(-c4ccccc4)nc3c2c1

photoluminescence quantum yield (in CO): 0.2
Compound: N#Cc1cccc(-c2nc(-c3ccccc3)c(-c3ccccc3)[nH]2)c1
